Measured values taken from patent US20210355107A1, “MULTI-SUBSTITUTED PYRIDONE DERIVATIVES AND MEDICAL USE THEREOF” (Beijing Yuezhikangtai Biomedicines Co., Ltd., priority 2018, published 2021).

Each molecule was assayed against T1, kinase Axl (Homo sapiens, UniProt P30530) (assay: Mobility shift assay, inhibitory activity against kinase Axl). Details: ATP at Km (81 μM), average of two independent experiments.
T1 construct: purchased Carna 08-107
T1 sequence (P30530 473-894 limits assumed): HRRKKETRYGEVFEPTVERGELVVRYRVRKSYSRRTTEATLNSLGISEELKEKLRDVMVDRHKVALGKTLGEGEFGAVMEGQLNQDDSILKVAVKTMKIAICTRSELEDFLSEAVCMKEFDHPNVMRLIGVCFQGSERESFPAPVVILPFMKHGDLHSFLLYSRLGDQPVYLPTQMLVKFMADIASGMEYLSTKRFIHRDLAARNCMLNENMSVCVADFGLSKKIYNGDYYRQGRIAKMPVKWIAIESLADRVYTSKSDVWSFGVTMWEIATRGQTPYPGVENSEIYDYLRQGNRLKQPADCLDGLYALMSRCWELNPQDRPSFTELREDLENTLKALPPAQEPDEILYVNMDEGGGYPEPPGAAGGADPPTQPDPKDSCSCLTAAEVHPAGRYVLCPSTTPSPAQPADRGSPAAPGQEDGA
Assay type: biochemical

| Compound | IC50 [nM] |
| --- | --- |
| CCn1cc(-c2cnc(N)c(-c3ccc(NC(=O)c4cn(C(C)C)c(C#N)c(-c5ccc(F)cc5)c4=O)cc3F)c2)cn1 [Example 3, N-(4-(2-amino-5-(1-ethyl-1H-pyrazol-4-yl)pyridin-3-yl)-3-fluoro-phenyl)-6-cyano-5-(4-fluorophenyl)-1-isopropyl-4-oxo-1,4-dihydropyridine-3-carboxamide] | 2.7 |
| CCn1cc(-c2cnc(N)c(-c3ccc(NC(=O)c4cn(C5CC5)c(C#N)c(-c5ccc(F)cc5)c4=O)cc3F)c2)cn1 [Example 10, N-(4-(2-amino-5-(1-ethyl-1H-pyrazol-4-yl)pyridin-3-yl)-3-fluorophenyl)-6-cyano-5-(4-fluorophenyl)-1-cyclopropyl-4-oxo-1,4-dihydropyridine-3-carboxamide] | 2.8 |
| CC(C)n1cc(C(=O)Nc2cc(F)c(-c3cc(-c4cnn(C)c4)cnc3N)cc2F)c(=O)c(-c2ccc(F)cc2)c1C#N [Example 6, N-(4-(2-amino-5-(1-methyl-1H-pyrazol-4-yl)pyridin-3-yl)-2,5-difluorophenyl)-6-cyano-5-(4-fluorophenyl)-1-isopropyl-4-oxo-1,4-dihydropyridine-3-carboxamide] | 2 |
| COc1cc2nccc(Oc3ccc(NC(=O)c4cn(C)c(C#N)c(-c5ccc(F)cc5)c4=O)cc3F)c2cc1OC [Example 21, 6-cyano-N-(4-((6,7-dimethoxyquinolin-4-yl)oxy)-3-fluoro-phenyl)-5-(4-fluorophenyl)-1-methyl-4-oxo-1,4-dihydropyridine-3-carboxamide] | 3.2 |

Stronger by IC50, values ahead:

| IC50 [nM] | Compound |
| --- | --- |
| 0.46 | CC(C)n1cc(C(=O)Nc2ccc(-c3cc(-c4cnn(C5CCNCC5)c4)cnc3N)c(F)c2)c(=O)c(-c2ccc(F)cc2)c1C#N [Example 2, N-(4-(2-amino-5-(1-(piperidin-4-yl)-1H-pyrazol-4-yl)pyridin-3-yl)-3-fluorophenyl)-6-cyano-5-(4-fluorophenyl)-1-isopropyl-4-oxo-1,4-dihydropyridine-3-carboxamide] |
| 0.28 | CC(C)n1cc(C(=O)Nc2ccc(-c3cc(-c4cnn(C)c4)cnc3N)c(F)c2)c(=O)c(-c2ccc(F)cc2)c1C#N [Example 4, N-(4-(2-amino-5-(1-methyl-1H-pyrazol-4-yl)pyridin-3-yl)-3-fluorophenyl)-6-cyano-5-(4-fluorophenyl)-1-isopropyl-4-oxo-1,4-dihydropyridine-3-carboxamide] |
